# Assay results: USRE38117E1, “Trioxane dimer compound having antiproliferative and antitumor activities” (Hauser, Inc., priority 1995, dated 2003)
# Legend:
# Assay type in all cases: cell-based
# SF-539 = assay: NCI 60 cell line screen (SRB), CNS Cancer; conditions: SF-539 (CNS Cancer)
# SNB-75 = assay: NCI 60 cell line screen (SRB), CNS Cancer; conditions: SNB-75 (CNS Cancer)
# ACHN = assay: NCI 60 cell line screen (SRB), Renal Cancer
# NCI-H226 = assay: NCI 60 cell line screen (SRB), Non-Small Cell Lung Cancer
# OVCAR-8 = assay: NCI 60 cell line screen (SRB), Ovarian Cancer; conditions: OVCAR-8 (Ovarian Cancer)
# SK-MEL-28 = assay: NCI 60 cell line screen (SRB), Melanoma; conditions: SK-MEL-28 (Melanoma)
# HOP-62 = assay: NCI 60 cell line screen (SRB), Non-Small Cell Lung Cancer; conditions: HOP-62 (Non-Small Cell Lung Cancer)
# OVCAR-5 = assay: NCI 60 cell line screen (SRB), Ovarian Cancer; conditions: OVCAR-5 (Ovarian Cancer)
# CAKI-1 = assay: NCI 60 cell line screen (SRB), Renal Cancer; conditions: CAKI-1 (Renal Cancer)
# TK-10 = assay: NCI 60 cell line screen (SRB), Renal Cancer; conditions: TK-10 (Renal Cancer)
# 60 cell line panel = assay: NCI 60 cell line screen, values over the whole panel; conditions: mean value over the cell line panel
# NCI-H23 = assay: NCI 60 cell line screen (SRB), Non-Small Cell Lung Cancer
# IGROVI = assay: NCI 60 cell line screen (SRB), Ovarian Cancer
# RPMI-8226 = assay: NCI 60 cell line screen (SRB), Leukemia; conditions: RPMI-8226 (Leukemia)
# MDA-N = assay: NCI 60 cell line screen (SRB), Breast Cancer
# HL-60(TB) = assay: NCI 60 cell line screen (SRB), Leukemia; conditions: HL-60(TB) (Leukemia)
# MDA-MB231/ATCC = assay: NCI 60 cell line screen (SRB), Breast Cancer
# UACC-62 = assay: NCI 60 cell line screen (SRB), Melanoma; conditions: UACC-62 (Melanoma)
# UACC-257 = assay: NCI 60 cell line screen (SRB), Melanoma; conditions: UACC-257 (Melanoma)
# MCF7/ADR-RES = assay: NCI 60 cell line screen (SRB), Breast Cancer
# HCT-15 = assay: NCI 60 cell line screen (SRB), Colon Cancer; conditions: HCT-15 (Colon Cancer)
# SK-OV-3 = assay: NCI 60 cell line screen (SRB), Ovarian Cancer; conditions: SK-OV-3 (Ovarian Cancer)
# M14 = assay: NCI 60 cell line screen (SRB), Melanoma
# MALME-3M = assay: NCI 60 cell line screen (SRB), Melanoma; conditions: MALME-3M (Melanoma)
# LOX IMVI = assay: NCI 60 cell line screen (SRB), Melanoma
# OVCAR-3 = assay: NCI 60 cell line screen (SRB), Ovarian Cancer; conditions: OVCAR-3 (Ovarian Cancer)
# A498 = assay: NCI 60 cell line screen (SRB), Renal Cancer
# UO-31 = assay: NCI 60 cell line screen (SRB), Renal Cancer; conditions: UO-31 (Renal Cancer)
# CCRF-CEM = assay: NCI 60 cell line screen (SRB), Leukemia
# A549/ATCC = assay: NCI 60 cell line screen (SRB), Non-Small Cell Lung Cancer
# HOP-92 = assay: as above; conditions: HOP-92 (Non-Small Cell Lung Cancer)
# T-47D = assay: NCI 60 cell line screen (SRB), Breast Cancer; conditions: T-47D (Breast Cancer)
# RXF 393 = assay: NCI 60 cell line screen (SRB), Renal Cancer; conditions: RXF 393 (Renal Cancer)
smiles,measurement,setting,value
"COC1OC2(C)CCC3CCCC(CCOC(=O)c4ccc(C(=O)OCCC5CCCC6CCC7(C)OOC56C(OC)O7)cc4)C31OO2 (stereo not drawn) [Compound 11, Bis-ester Dimer]",Log10LC50,SF-539,>−4.00 M
same,Log10GI50,SNB-75,−5.66 M
same,Log10LC50,SNB-75,>−4.00 M
same,Log10GI50,ACHN,−5.42 M
same,Log10LC50,ACHN,>−4.00 M
same,Log10TGI,ACHN,>−4.00 M
same,Log10GI50,NCI-H226,−5.26 M
same,Log10LC50,NCI-H226,>−4.00 M
same,Log10TGI,NCI-H226,>−4.00 M
same,Log10GI50,OVCAR-8,−6.03 M
same,Log10LC50,OVCAR-8,>−4.00 M
same,Log10TGI,OVCAR-8,>−4.00 M
same,Log10GI50,SK-MEL-28,−4.31 M
same,Log10LC50,SK-MEL-28,>−4.00 M
same,Log10TGI,SK-MEL-28,>−4.00 M
same,Log10GI50,HOP-62,−5.01 M
same,Log10LC50,HOP-62,>−4.00 M
same,Log10TGI,HOP-62,>−4.00 M
same,Log10GI50,OVCAR-5,−5.45 M
same,Log10LC50,OVCAR-5,>−4.00 M
same,Log10TGI,OVCAR-5,>−4.00 M
same,Log10GI50,CAKI-1,−4.99 M
same,Log10LC50,CAKI-1,>−4.00 M
same,Log10TGI,CAKI-1,>−4.00 M
same,Log10GI50,TK-10,−5.06 M
same,Log10LC50,TK-10,>−4.00 M
same,Log10TGI,TK-10,>−4.00 M
same,Log10GI50 MG MID,60 cell line panel,−5.59 M
same,Log10LC50 MG MID,60 cell line panel,−4.04 M
same,Log10TGI MG MID,60 cell line panel,−4.19 M
same,Log10GI50,NCI-H23,−6.03 M
same,Log10LC50,NCI-H23,>−4.00 M
same,Log10TGI,NCI-H23,−4.19 M
same,Log10GI50,IGROVI,−4.95 M
same,Log10LC50,IGROVI,>−4.00 M
same,Log10TGI,IGROVI,>−4.00 M
same,Log10GI50,RPMI-8226,−6.33 M
same,Log10LC50,RPMI-8226,>−4.00 M
same,Log10TGI,RPMI-8226,−5.10 M
same,Log10GI50,MDA-N,−5.56 M
same,Log10LC50,MDA-N,>−4.00 M
same,Log10TGI,MDA-N,>−4.00 M
same,Log10GI50,HL-60(TB),−7.42 M
same,Log10LC50,HL-60(TB),−5.26 M
same,Log10TGI,HL-60(TB),−6.58 M
same,Log10GI50,MDA-MB231/ATCC,−5.18 M
same,Log10LC50,MDA-MB231/ATCC,>−4.00 M
same,Log10TGI,MDA-MB231/ATCC,>−4.00 M
same,Log10GI50,UACC-62,−5.87 M
same,Log10LC50,UACC-62,>−4.00 M
same,Log10TGI,UACC-62,>−4.00 M
same,Log10GI50,UACC-257,−5.36 M
same,Log10LC50,UACC-257,>−4.00 M
same,Log10TGI,UACC-257,>−4.00 M
same,Log10GI50,MCF7/ADR-RES,−5.11 M
same,Log10LC50,MCF7/ADR-RES,>−4.00 M
same,Log10TGI,MCF7/ADR-RES,>−4.00 M
same,Log10GI50,HCT-15,−6.12 M
same,Log10LC50,HCT-15,>−4.00 M
same,Log10TGI,HCT-15,>−4.00 M
same,Log10GI50,SK-OV-3,−5.28 M
same,Log10LC50,SK-OV-3,>−4.00 M
same,Log10TGI,SK-OV-3,>−4.00 M
same,Log10GI50,M14,−5.20 M
same,Log10LC50,M14,>−4.00 M
same,Log10TGI,M14,>−4.00 M
same,Log10GI50,MALME-3M,−5.03 M
same,Log10LC50,MALME-3M,>−4.00 M
same,Log10TGI,MALME-3M,>−4.00 M
same,Log10GI50,LOX IMVI,−6.28 M
same,Log10LC50,LOX IMVI,>−4.00 M
same,Log10TGI,LOX IMVI,>−4.00 M
same,Log10GI50,OVCAR-3,−5.63 M
same,Log10LC50,OVCAR-3,>−4.00 M
same,Log10TGI,OVCAR-3,>−4.00 M
same,Log10GI50,A498,>−4.00 M
same,Log10LC50,A498,>−4.00 M
same,Log10TGI,A498,>−4.00 M
same,Log10GI50,UO-31,−5.63 M
same,Log10LC50,UO-31,>−4.00 M
same,Log10TGI,UO-31,>−4.00 M
same,Log10GI50,CCRF-CEM,−6.57 M
same,Log10LC50,CCRF-CEM,−4.05 M
same,Log10TGI,CCRF-CEM,−4.89 M
same,Log10GI50,A549/ATCC,−5.42 M
same,Log10LC50,A549/ATCC,>−4.00 M
same,Log10TGI,A549/ATCC,>−4.00 M
same,Log10GI50,HOP-92,−4.91 M
same,Log10LC50,HOP-92,>−4.00 M
same,Log10TGI,HOP-92,>−4.00 M
"CC(=O)O[C@H]1C(=O)[C@@]2(C)[C@H]([C@H](OC(=O)c3ccccc3)[C@]3(O)C[C@H](OC(=O)[C@H](O)[C@@H](NC(=O)c4ccccc4)c4ccccc4)C(C)=C1C3(C)C)[C@]1(OC(C)=O)CO[C@@H]1C[C@@H]2O [Paclitaxel, paclitaxel, reference compound]",Log10GI50,SF-539,−11.09 M
same,Log10LC50,SF-539,>−4.00 M
same,Log10GI50,T-47D,−9.81 M
same,Log10LC50,T-47D,>−4.00 M
same,Log10LC50,ACHN,−4.45 M
same,Log10TGI,ACHN,−4.90 M
same,Log10GI50,OVCAR-8,−10.75 M
same,Log10LC50,OVCAR-8,>−4.00 M
same,Log10GI50,HOP-62,−9.67 M
same,Log10LC50,HOP-62,−4.10 M
same,Log10TGI,HOP-62,−4.80 M
same,Log10GI50,OVCAR-5,−9.38 M
same,Log10LC50,OVCAR-5,>−4.00 M
same,Log10TGI,OVCAR-5,−4.92 M
same,Log10LC50,CAKI-1,>−4.00 M
same,Log10GI50,TK-10,−7.89 M
same,Log10GI50,IGROVI,−8.61 M
same,Log10LC50,IGROVI,>−4.00 M
same,Log10TGI,IGROVI,−4.19 M
same,Log10GI50,RPMI-8226,<−13.00 M
same,Log10LC50,RPMI-8226,>−4.00 M
same,Log10TGI,RPMI-8226,>−4.00 M
same,Log10GI50,MDA-N,<−13.00 M
same,Log10GI50,HL-60(TB),−11.57 M
same,Log10LC50,HL-60(TB),>−4.53 M
same,Log10TGI,HL-60(TB),−4.53 M
same,Log10GI50,MDA-MB231/ATCC,−8.54 M
same,Log10TGI,MDA-MB231/ATCC,−4.84 M
same,Log10GI50,UACC-62,−10.46 M
same,Log10LC50,UACC-62,−4.19 M
same,Log10TGI,UACC-62,−4.71 M
same,Log10GI50,UACC-257,−10.30 M
same,Log10LC50,UACC-257,−4.03 M
same,Log10TGI,UACC-257,−4.52 M
same,Log10GI50,MCF7/ADR-RES,−8.48 M
same,Log10LC50,MCF7/ADR-RES,>−4.00 M
same,Log10TGI,MCF7/ADR-RES,>−4.00 M
same,Log10GI50,HCT-15,−6.37 M
same,Log10LC50,HCT-15,>−4.00 M
same,Log10TGI,HCT-15,>−4.00 M
same,Log10GI50,M14,−11.73 M
same,Log10LC50,M14,−4.13 M
same,Log10TGI,M14,−4.62 M
same,Log10LC50,MALME-3M,−4.11 M
same,Log10TGI,MALME-3M,−4.46 M
same,Log10GI50,LOX IMVI,−11.80 M
same,Log10LC50,LOX IMVI,>−4.15 M
same,Log10TGI,LOX IMVI,−4.65 M
same,Log10GI50,OVCAR-3,−10.40 M
same,Log10LC50,OVCAR-3,>−4.00 M
same,Log10TGI,OVCAR-3,−4.55 M
same,Log10GI50,A498,−7.14 M
same,Log10LC50,A498,−4.13 M
same,Log10GI50,UO-31,−6.09 M
same,Log10GI50,CCRF-CEM,−11.61 M
same,Log10LC50,CCRF-CEM,>−4.00 M
same,Log10TGI,CCRF-CEM,>−4.00 M
same,Log10GI50,RXF 393,−8.32 M
same,Log10LC50,RXF 393,>−4.00 M
same,Log10TGI,RXF 393,>−4.00 M
